From patent publication US9403840B2, “(Poly) aminoacetamide derivatives of epipodophyllotoxin their process of preparation and their applications in therapeutics as anticancer agents” (PIERRE FABRE MEDICAMENT, priority 2004, dated 2016) come the findings set out here.

For one data set, the system named is DNA in A549 cells. Kind of data set: Comets test for detection of breakages of the DNA in cellulo. As to conditions: 1 hour with 10 μM compound. The class given is cell-based, human. The protocol:
b) Test for Detection of Breakages of the DNA in Cellulo:
The comets test is used. The breakages of the DNA are detected in the A549 cells after incubating for 1 hour with 10 μM of each of the test compounds. […] For each compound, twenty-five cells are analysed and the mean Tail Moment (TM) is calculated using Komet software (Kinetic Imaging, UK).

In the next data set the test system is P388 murine leukaemia. Kind of data set: P388 experimental tumour model (survival). The following applies: CD2F1 mice, P388 i.v. day 0, single intraperitoneal injection day 1; optimum dose (mg/kg) in brackets. The class given is in vivo, mouse. The protocol:
The model used is P388 murine leukaemia (Tumor Models in Cancer Research., Teicher, B. A. ed., Humana Press Inc., Totowa, N.J., pp. 23-40, 2002), which is maintained by successive intraperitoneal transplantations in DBA/2 mice (DBA/2JIco, Charles River), as was described in prior art documents (Classic in vivo cancer models: Three examples of mouse models used in experimental therapeutics. Current Protocols in Pharmacology Unit 5.24: 5.24.1-5.24.16, 2001).
The experiment is carried out according to a protocol already described in prior art documents (Cancer Chemother. Pharmacol., 1998, 41, 437-447). This consists in implanting 10^6 cells of P388 leukaemia per mouse into C2DF1 hybrid mice (CD2F1/CrlBR, Charles River, St Aubin-les-Elbeuf, France) intravenously on day zero. After randomizing the animals in the treatment and control cages, the compounds to be evaluated are administered in a single injection intraperitoneally the day after the tumour graft, on day 1. The animals are subsequently monitored every day, weighed twice weekly and any clinical reaction is recorded. The survival is the parameter for evaluation of the antitumour activity. The increase in survival is defined by the T/Csurvival ratio (%), corresponding to: (Median of survival of the treated group/Median of survival of the control group)×100. A T/Csurvival ratio is calculated for each dose administered and the greatest value obtained represents the maximum increase in survival achieved (maximum activity), which is defined by the optimum T/Csurvival ratio. The results are illustrated in Table II, in which the optimum T/Csurvival values appear. […] Specifically, according to the criteria of the NCI (National Cancer Institute), a T/Csurvival value is regarded as significant if it is at least greater than 120% (Semin. Oncol., 1981, 8, 349-361). The relative loss in body weight of the animals, associated with the optimum activity of the compounds, is much less than the toxicity threshold, according to the criteria of the NCI (Ann. Oncol., 1994, 5, 415-422).

The test system of data set [1] is cells of the A549 human line (non-small-cell lung cancer). The experiment in a line: Cytotoxicity test: inhibition of growth of A549 cells (ATP-Lite luminescence). The following applies: 48 hours incubation. The class given is cell-based. The protocol:
The test used is the inhibition of growth of cells of the A549 human line (non-small-cell lung cancer):
The A549 tumour cells are seeded in a 96-well plate in RPMI 1640 medium without phenol red (Seromed) to which 5% of foetal calf serum is added (100 μl/well, 125×10^4 cells/ml). After incubating at 37° C. for 24 hours in an incubator comprising 5% CO2, the medium is replaced with that comprising the test compound, after which the plates are incubated for an additional 48 hours. Cell survival is evaluated by measuring the luminescence after release of ATP into the medium using the cell lysis, luciferase and luciferin solutions present in the ATP-Lite-M™ kit as is recommended by the manufacturer (Packard, Rungis, France). Each experimental condition was tested at least three times as six identical copies. The results, expressed as IC50 (M), are collated in Table I and show the cytotoxicity of the compounds.

A short description of data set [2]: Solubility in water of the hydrochloride. The class given is physicochemical. As to conditions: water-soluble hydrochloride. From the text:
The compounds of the present invention have a solubility in water which makes possible a form of administration by infusion, by injection or by the oral route. They are provided in the form of their water-soluble hydrochloride, the solubility values of which are collated in Table II.

In a further data set the test system is B16 melanoma. The experiment in a line: B16 experimental tumour model (tumour volume). The class given is in vivo, mouse. As to conditions: C57BL/6 mice, s.c. B16, intraperitoneal on days 3, 5, 7 and 10; dose (mg/kg) in brackets. The method, then:
The model used is the B16 melanoma (Tumor Models in Cancer Research., Teicher, B. A. ed., Humana Press Inc., Totowa, N.J., pp. 23-40, 2002), which is maintained by successive subcutaneous transplantations in C57BL/6 mice (C57BL/6 NCrlBR, Charles River, St Aubin-les-Elbeuf, France), as was described above (Classic in vivo cancer models: Three examples of mouse models used in experimental therapeutics. Current Protocols in Pharmacology Unit 5.24: 5.24.1-5.24.16, 2001).
The experiment is carried out according to a protocol already described above. B16 tumour tissue is ground and homogenized in a 0.9% sterile sodium chloride solution using a Dounce homogenizer and then C57BLJ6 mice are inoculated subcutaneously into the flank with 0.5 ml of this 1 g/ml preparation on day zero. After randomizing the animals in the treatment and control cages, the compounds to be evaluated are administered intraperitoneally on days 3, 5, 7 and 10 after the grafting of the tumour. The animals are subsequently monitored every day, weighed twice weekly and any clinical reaction is recorded. The size of the tumour is measured three times weekly during the experiment. The tumour volume is calculated and the activity of the compounds on the size of the tumour is defined by the T/Cvolume ratio (%), corresponding to (Median tumour volume of the treated group/Median tumour volume of the control group)×100. […]

The test system of data set [3] is MX-1 human mammary carcinoma. Kind of data set: MX-1 experimental tumour model (tumour volume). In kind it is in vivo, mouse. From the text:
The model used is a human mammary carcinoma (Developmental Therapeutics Program, Division of Cancer Treatment, National Cancer Institute, In vivo Cancer Models 1976-1982. NIH Publication No. 84 2635, Washington D.C.: United States Government Printing Office, 1984), which is maintained by successive subcutaneous transplantations in Swiss Nude mice (Ico: Swiss-nu/nu, Iffa Credo, L'Arbresle, France), as was described above (Classic in vivo cancer models: Three examples of mouse models used in experimental therapeutics. Current Protocols in Pharmacology Unit 5.24: 5.24.1-5.24.16, 2001).
The experiment is carried out according to a protocol already described above (Cancer Chemother. Pharmacol., 1998, 41, 437-447). […] After randomizing the animals in their treatment and control cages, the compounds to be evaluated are administered intraperitoneally on day 7, 9, 11, 14, 16 and 18 after the grafting of the tumour. The animals are subsequently monitored every day, weighed twice weekly and any clinical reaction is recorded. The size of the tumour is measured three times weekly during the experiment. The tumour volume is calculated and the activity of the compounds on the size of the tumour is defined by the T/Cvolume ratio (%), corresponding to (Median tumour volume of the treated group/Median tumour volume of the control group)×100.

Each structure is given as a SMILES string. In brackets after ≈: the same amount, converted by molar mass. Several values for one entry are separate records, joined by “and”; a condition that tells them apart may be missing. Equal entries are not always repeated. Structures can show the parent of a compound that is named as a salt.

`COc1cc(C2c3cc4c(cc3C(NC(=O)CN3CCCCC3)C3COC(=O)C23)OCO4)cc(OC)c1O` (stereo not drawn) (as salt: hydrochloride): the melting point was in the range of 269 to 270 °C.

For `COc1cc(C2c3cc4c(cc3C(NC(=O)CNCCN)C3COC(=O)C23)OCO4)cc(OC)c1O` (stereo not drawn) (as salt: hydrochloride), the melting point stood at 236 °C.

In the case of `COc1cc(C2c3cc4c(cc3C(NC(=O)CNCCCN)C3COC(=O)C23)OCO4)cc(OC)c1O` (stereo not drawn) (as salt: hydrochloride), the melting point stood at 219 °C.

As to `COc1cc(C2c3cc4c(cc3C(NC(=O)CNCCCNCCCCNCCCN)C3COC(=O)C23)OCO4)cc(OC)c1OC` (stereo not drawn) (as salt: hydrochloride), the melting point came to 209 °C.

For `COc1cc(C2c3cc4c(cc3C(NC(=O)CNCCCCNCCCN)C3COC(=O)C23)OCO4)cc(OC)c1O` (stereo not drawn) (as salt: hydrochloride), the melting point turned out to be 199 °C.

Regarding `COc1cc(C2c3cc4c(cc3C(NC(=O)CN)C3COC(=O)C23)OCO4)cc(OC)c1O` (stereo not drawn) (as salt: hydrochloride) [Example 22, 2-amino-N-[9-(4-hydroxy-3,5-dimethoxyphenyl)-8-oxo-5,5a,6,8,8a,9-hexahydrofuro[3′,4′:6,7]naphtho[2,3-d][1,3]dioxol-5-yl]acetamide], the melting point was 236 °C.

On to `COc1cc(C2c3cc4c(cc3C(NC(=O)CNCCCNCCCCN)C3COC(=O)C23)OCO4)cc(OC)c1O` (stereo not drawn) (as salt: hydrochloride) [Example 31, 2-[3-(4-aminobutylamino)propylamino]-N-[9-(4-hydroxy-3,5-dimethoxyphenyl)-8-oxo-5,5a,6,8,8a,9-hexahydrofuro[3′,4′:6,7]naphtho[2,3-d][1,3]dioxol-5-yl]acetamide], for which the melting point amounted to 255 °C.

`COc1cc(C2c3cc4c(cc3C(NC(=O)CNCCN(C)C)C3COC(=O)C23)OCO4)cc(OC)c1O` (stereo not drawn) [Example 9, 2-(2-dimethylaminoethylamino)-N-[9-(4-hydroxy-3,5-dimethoxyphenyl)-8-oxo-5,5a,6,8,8a,9-hexahydrofuro[3′,4′:6,7]naphtho[2,3-d][1,3]dioxol-5-yl]acetamide]: in the data set on DNA in A549 cells, the “TM (mean Tail Moment with respect to the TM of etoposide, taken to be unity)” value (from here on “TM”) turned out to be 2.81. The “P388 Model Optimum T/Csurvival (%)” value with P388 murine leukaemia is 157 [10] %. For the same molecule, 6000 nM corresponded to half-maximal inhibition in data set [1] (Homo sapiens) (IC50). Moreover, the solubility in data set [2] stood at 100 mg/mL (≈ 190 mM).

Take `COc1cc(C2c3cc4c(cc3C(NC(=O)CN(C)C)C3COC(=O)C23)OCO4)cc(OC)c1O` (stereo not drawn) [Example 12, 2-dlmethylamino-N-[9-(4-hydroxy-3,5-dimethoxyphenyl)-8-oxo-5,5a,6,8,8a,9-hexahydrofuro[3′,4′:6,7]naphtho[2,3-d][1,3]dioxol-5-yl]acetamide]: the “TM” value in the data set on DNA in A549 cells was 2.32. Further, the “P388 Model Optimum T/Csurvival (%)” value in the data set on P388 murine leukaemia is 157 [2.5] %. In data set [1], this molecule showed a half-maximal inhibitory concentration (IC50) of 200 nM. Besides, the “Solubility in water” value in data set [2] came to 16 mg/mL (≈ 33 mM).

For `COc1cc(C2c3cc4c(cc3C(NC(=O)CN)C3COC(=O)C23)OCO4)cc(OC)c1O` (stereo not drawn) [Example 22, 2-amino-N-[9-(4-hydroxy-3,5-dimethoxyphenyl)-8-oxo-5,5a,6,8,8a,9-hexahydrofuro[3′,4′:6,7]naphtho[2,3-d][1,3]dioxol-5-yl]acetamide], the “TM” value with DNA in A549 cells was 3.89. The same molecule showed an IC50 in data set [1] (Homo sapiens) of 1000 nM.

Consider `COc1cc(C2c3cc4c(cc3C(NC(=O)CNCCCCN)C3COC(=O)C23)OCO4)cc(OC)c1O` (stereo not drawn) [Example 25, 2-(4-aminobutylamino)-N-[9-(4-hydroxy-3,5-dimethoxyphenyl)-8-oxo-5,5a,6,8,8a,9-hexahydrofuro[3′,4′:6,7]naphtho[2,3-d][1,3]dioxol-5-yl]acetamide], for which, in the data set with B16 melanoma, the “B16 Model Optimum T/Cvolume (%)” value is 25% and 25 [20] %. Besides, in the data set on DNA in A549 cells, the “TM” value is 1.09. The “P388 Model Optimum T/Csurvival (%)” value in the data set with P388 murine leukaemia is 129 [10] %. For the same molecule, the “MX-1 Model Optimum T/Cvolume (%)” value in data set [3] (Swiss Nude mice, s.c. MX-1, intraperitoneal on day 7, 9, 11, 14, 16 and 18, dose (mg/kg) in brackets) is 51% and 51 [10] %. The IC50 in data set [1] (Homo sapiens) was 80 nM. Moreover, the solubility in data set [2] was 100 mg/mL (≈ 190 mM).

Consider `COc1cc(C2c3cc4c(cc3C(NC(=O)CNCCCNCCCCNCCCN)C3COC(=O)C23)OCO4)cc(OC)c1O` (stereo not drawn) [Example 27, 2-{3-[4-(3-aminopropylamino)butylamino]propylamino}-N-[9-(4-hydroxy-3,5-dimethoxyphenyl)-8-oxo-5,5a,6,8,8a,9-hexahydrofuro[3′,4′:6,7]naphtho[2,3-d][1,3]dioxol-5-yl]acetamide], for which the “TM” value in the data set on DNA in A549 cells is on record as 1.22. Besides, in the data set with P388 murine leukaemia, the “P388 Model Optimum T/Csurvival (%)” value was 129 [7.5] %. Moreover, the “effect on the tumour (in words)” value in data set [3] (MX-1, treatment of 2.5 mg/kg) is listed as “complete eradication of the tumour”. This molecule had an IC50 in data set [1] (Homo sapiens) of 200 nM. In data set [2], this molecule came in with a solubility of 50 mg/mL (≈ 77.9 mM).

In the case of `CCC1=C[C@@H]2CN(C1)Cc1c([nH]c3ccccc13)[C@@](C(=O)OC)(c1cc3c(cc1OC)N(C)[C@H]1[C@@](O)(C(=O)OC)[C@H](OC(C)=O)[C@]4(CC)C=CCN5CC[C@]31[C@@H]54)C2` [Vinorelbine, reference compound], the “TM” value in the data set with DNA in A549 cells is 0. The molecule further yielded a half-inhibitory concentration (IC50) in data set [1] (Homo sapiens) of 3.7 nM.
